Laboratory results: ChEMBL document CHEMBL2396624, “Rearranged limonoids and chromones from Harrisonia perforata and their anti-inflammatory activity” (Bioorg Med Chem Lett, 2013)

Experiments:
[1] = Antiinflammatory activity in mouse J774A1 cells assessed as reduction of LPS-induced nitric oxide production treated 2 hrs before LPS addition measured after 20 hrs by using Griess reagent; assay type: functional, cell-based; details: J774.A1
J774.A1 = assay: Antiinflammatory activity in mouse J774A1 cells assessed as reduction of LPS-induced iNOS expression after 6 to 12 hrs by Western blot analysis; assay type: functional, cell-based
[2] = Cytotoxicity against mouse J774A1 cells assessed as cell viability at 2.5 to 20 uM after 20 hrs by MTT assay; assay type: cell-based; details: j774.a1, 20 h

| IC50 [1] [µM] | SMILES | Activity (J774.A1) | Activity [2] |
| --- | --- | --- | --- |
| 56.4 | COc1cc2oc(C)cc(=O)c2c(O)c1CC=C(C)C |  |  |
| 66.4 | COc1cc2c(c3oc(C)cc(=O)c13)C=CC(C)(C)O2 |  |  |
| 55 | COC(=O)c1cc(=O)c2c(O)cc3c(c2o1)C=CC(C)(C)O3 |  |  |
| 132 | C[C@H]1c2ccoc2C[C@H]2[C@H]1CC[C@@H]1[C@]2(C)CCC[C@]1(C)C(=O)O [(+)-VOUACAPENIC ACID] |  |  |
| 49.6 | COc1cc(O)c2c(=O)cc(C)oc2c1CCC(C)(C)O [HARPERAMONE] |  |  |
| 6.51 | COC(=O)/C=C\[C@]1(C)[C@H]2CC[C@@]3(C)[C@H](C4=CC(O)OC4=O)OC(=O)[C@H]4O[C@]43[C@]2(C)[C@]2(O)OC(C)(C)C(=O)[C@@]21O (some centres not stated) [HARPERFOLIDE] | Dose-dependent effect | Non-toxic |
| 135 | COC(=O)/C=C\[C@]1(C)[C@H]2CC[C@@]3(C)[C@H](c4ccoc4)OC(=O)[C@H]4O[C@]43[C@]2(C)[C@]2(O)OC(C)(C)C(=O)[C@@]21O [HARRISONIN] |  |  |
| 28.4 | COc1ccc2c(c1)c(CC(=O)O)c(C)n2C(=O)c1ccc(Cl)cc1 [INDOMETHACIN] |  |  |
| 83.6 | CC1(C)OC(=O)C=C[C@]2(C)[C@H]3CC[C@@]4(C)[C@H](c5ccoc5)OC(=O)[C@H]5O[C@]54[C@]3(C)C(=O)C[C@@H]12 [OBACUNONE] |  |  |

| SMILES | IC50 [1] [µM] | Activity (J774.A1) | Activity [2] |
| --- | --- | --- | --- |
| CC(=O)c1c(O)c(CC=C(C)C)c(O)c2c1O[C@](C)(CCC=C(C)C)[C@H](OO)C2 | 31 |  |  |
